# Reference: patent US6093747A, “1,7,7-trimethyl-bicyclo[2.2.1]heptane derivatives as anxiolytic agents having enhanced receptor specificity” (priority 1996, dated 2000)
# pKi: −log10 of the molar value.
# Legend:
# [1] = animal or person; assay type: in vivo, male NMRI mice; details: for ED50: Mus musculus, po, 1 h, read-out: ED50, potentiation of hexobarbital induced narcosis
# Experimental: Potentiation of Hexobarbital Induced Narcosis
# Male NMRI mice weighing 20-25 g were treated p.o. with the test compound or with vehiculum in 20 ml/kg volume 60 minutes prior to the iv. injection of 40 mg/kg (10 ml/kg) hexobarbital. The sleeping animals were placed on a flat surface lying on their left side and the accurate sleeping and awakening times were recorded. The animals were considered to be awaken when they rolled up from their side.
# Sleeping times 2.5 times higher than the average of the control group were considered as criterion for potentiation (cut up method), results were expressed as percent increase compared to control values, ED50 values were calculated from the dose response curves according to Litchfield-Wilcoxon.
# [2] = Elevated plus-maze test; assay type: in vivo, male Sprague-Dawley rats; details: for minimal effective dose: Rattus norvegicus, 1 h, treated 60 minutes prior to the test, based on times spent in the open arms, read-out: MED (minimal effective dose), elevated plus maze; for effect in the elevated plus maze test (in words): rat, in vivo
# Experimental: The elevated plus-maze consisted of two open and two 40 cm wall enclosed arms of the same size (50×15 cm) arranged in the shape of a cross. The arms of the same type were opposite to each other. The junction of the four arms forms a central square area (15×15 cm). The apparatus is made of wooden material elevated to a height of 50 cm from the floor and illuminated by a dim light from above.
# Male Sprague-Dawley rats weighing 220-260 g were treated with the test or reference compounds 60 minutes prior to the test. They were then placed onto the central square area and were subjected to the test for 5 minutes. The following parameters were determined:
# Time spent in the open arms;
# Time spent in the closed arms;
# Number of entries into the open arms;
# Number of entries into the closed arms.
# A compound was considered to be effective when significant increase was found either in the time spent in the open arms or in the number of entries into the open arms when compared to the control animals. Minimum Effective Doses (MED) were determined based on the times spent in the open arms for each compound examined (Table II) [Pelow et al., J. Neurosci. Methods, 14: 149-169, 1985].
# [3] = molecular target: T1, D1 (Rattus norvegicus, UniProt P18901); experiment: Receptor binding assay, D1 (3H-SCH 23390); set-up: species or system male Wistar rat; details: 3H-SCH 23390 0.78 Nm, striatum
# T1 construct: from tissue; host or cells: male Wistar rat striatum, membrane fraction
# Experimental: (§1) The different brain regions of 120-200 g male Wistar rats were used for receptor binding assays except for 5-HT2c receptors where binding studies were performed on porcine choroid plexus. Protein content of the membrane fraction was determined as described by Lowry [Lowry, O. H., Rosebrough, M. J., Farr, A. L. and Randall, R. Y.: J. Biol. Chem., 193: 265-275, 1951].
# D1 ^3 H-SCH 23390 striatum cis- Hietala J. et
# 0.78 Nm flupentixol al., Neurosci.
# [4] = molecular target: T2, D2 (Rattus norvegicus, UniProt P61169); experiment: Receptor binding assay, D2 (3H-spiperone); set-up: species or system male Wistar rat; details: 3H-spiperone 0.5 nM, striatum
# T2 construct: from tissue; host or cells: male Wistar rat striatum, membrane fraction
# Experimental: as §1
# D2 ^3 H-spiperone striatum butaclamol Leff, S. et al.,
# [5] = Inhibition of mCPP induced anxiety (light-dark apparatus); assay type: in vivo, male Wistar rats; details: for minimal effective dose: Rattus norvegicus, ip, treated twenty minutes before mCPP s.c., read-out: MED (minimal effective dose), inhibition of mCPP induced anxiety; for effect on mCPP induced anxiety (in words): rat model, Compound A up to 3.0 mg/kg i.p.
# Experimental: The tests were carried out on male Wistar rats weighing 160-220 g according to Kennett [Kennett, G. A., Whitton, P., Shah, K. and Curzon, G. Eur. J. Pharmacol., 164: 445-454, 1989.]. The animals were treated either with the test compound or with vehiculum (0.4% methyl cellulose solution). Twenty minutes later either mCPP (m-chlorophenyl-piperazin) or physiological saline was administered subcutaneously. The animals were kept in the dark for additional 20 minutes, then they were placed into the light-dark apparatus (Omnitech, Digiscan, Model RXYZCM16) and their motor activity was recorded for five minutes. The testbox consisted of one dark and one lit compartment of the same size (39×20×29 cm) with an 8×8 gate providing free passage for the animals between the two compartments. The lit area was illuminated by a 40 W red light bulb 30 cm above the floor. Motor activity was recorded as the number of interruptions of the infrared light beams (16 beams 2 cm and 16 beams 8 cm above the floor). The number of crossing in the lit compartment was considered as the measure of antagonistic effect on mCPP induced anxiety. Data were statistically analyzed by one way ANOVA followed by Dunnet's t-test.
# [6] = molecular target: T3, 5-HT2C (Sus scrofa, UniProt K7GSR7); experiment: biochemical; assay type: binding, porcine
# T3 construct: from tissue; host or cells: porcine choroid plexus
# T3 sequence (K7GSR7 1-457): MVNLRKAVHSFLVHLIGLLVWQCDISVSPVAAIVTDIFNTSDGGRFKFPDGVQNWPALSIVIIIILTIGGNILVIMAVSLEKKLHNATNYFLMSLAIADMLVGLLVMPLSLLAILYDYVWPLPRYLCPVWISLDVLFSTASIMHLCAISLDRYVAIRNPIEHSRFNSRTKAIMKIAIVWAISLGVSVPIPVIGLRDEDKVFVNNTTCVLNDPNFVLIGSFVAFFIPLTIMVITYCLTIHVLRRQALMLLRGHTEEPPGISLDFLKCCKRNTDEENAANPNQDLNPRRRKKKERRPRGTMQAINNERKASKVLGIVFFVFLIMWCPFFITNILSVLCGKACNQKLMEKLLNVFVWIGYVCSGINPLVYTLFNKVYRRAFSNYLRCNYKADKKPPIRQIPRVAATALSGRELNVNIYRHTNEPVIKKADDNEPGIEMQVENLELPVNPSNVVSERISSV
# Experimental: as §1
# (§2) 5-HT2C ^3 H-mesulergin choroid mianserin Pazos, A. et
# (§3) 1.0 nM plexus (1 μM) al. Eur. J.
# [7] = tested on: 5-HT2C; experiment: biochemical; assay type: binding, porcine; details: among 5-HT receptors
# Experimental: as §1, §2, §3
# [8] = molecular target: T4, 5-HT1A (Rattus norvegicus, UniProt P19327); experiment: Receptor binding assay, 5-HT1A (3H-8-OH-DPAT); set-up: species or system male Wistar rat; details: 3H-8-OH-DPAT 0.7 nM, frontal cortex
# T4 construct: from tissue; host or cells: male Wistar rat frontal cortex, membrane fraction
# T4 sequence (P19327 1-422): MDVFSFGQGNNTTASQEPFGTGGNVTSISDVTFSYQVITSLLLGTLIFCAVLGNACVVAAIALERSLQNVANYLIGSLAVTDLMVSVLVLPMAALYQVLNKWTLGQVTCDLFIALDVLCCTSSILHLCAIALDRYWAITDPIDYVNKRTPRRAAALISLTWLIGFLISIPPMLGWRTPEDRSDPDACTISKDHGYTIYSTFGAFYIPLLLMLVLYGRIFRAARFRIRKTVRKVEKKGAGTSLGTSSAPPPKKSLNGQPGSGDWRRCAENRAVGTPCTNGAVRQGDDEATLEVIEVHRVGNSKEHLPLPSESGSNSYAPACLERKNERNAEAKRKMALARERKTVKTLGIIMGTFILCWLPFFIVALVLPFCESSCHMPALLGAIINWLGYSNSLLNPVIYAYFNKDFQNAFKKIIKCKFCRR
# Experimental: as §1
# frontal 5-HT Peroutka, S.
# 0.7 nM cortex (10 μM) J. J.
# [9] = Inhibition of spontaneous motor activity; assay type: in vivo, mice; details: for ED50: Mus musculus, 1 h, treated 60 minutes prior to the test, ID50 by linear regression analysis
# Experimental: Inhibition of Spontaneous Motor Activity
# Spontaneous motor activity was measured as described earlier [Borsy et al., Arch. Int. Pharmacodyn. 124: 1-, 1960.] in a 10 box apparatus (Dews) 3--3 mice in each compartment. Mice were treated either with test compounds or with vehiculum 60 minutes prior to the test. The number of interruptions of the infrared light beams was counted, ID50 values were calculated by linear regression analysis (Table IV).
# [10] = molecular target: T5, 5-HT2A (Rattus norvegicus, UniProt P14842); experiment: Receptor binding assay, 5-HT2A (3H-ketanserin); set-up: species or system male Wistar rat; details: 3H-ketanserin 1.0 nM, frontal cortex
# T5 construct: from tissue; host or cells: male Wistar rat frontal cortex, membrane fraction
# Experimental: as §1
# 5-HT2A ^3 H-ketanserin frontal cyprohepta- Leysen, J. E.
# 1.0 nM cortex dine et al.: Mol.
# [11] = molecular target: T6, Sigma (Rattus norvegicus, UniProt Q9R0C9); experiment: Receptor binding assay, Sigma (3H-pentazocine); set-up: species or system male Wistar rat; details: for pKi: Sigma, 3H-pentazocine 3.0 nM, cerebellum
# T6 construct: from tissue; host or cells: male Wistar rat cerebellum, membrane fraction
# Experimental: as §1
# Sigma ^3 H-pentazocine cerebellum haloperidol Costa B. R. et
# 3.0 nM (10 μM) al., Febs Lett.,
# T6 sequence (Q9R0C9 whole entry): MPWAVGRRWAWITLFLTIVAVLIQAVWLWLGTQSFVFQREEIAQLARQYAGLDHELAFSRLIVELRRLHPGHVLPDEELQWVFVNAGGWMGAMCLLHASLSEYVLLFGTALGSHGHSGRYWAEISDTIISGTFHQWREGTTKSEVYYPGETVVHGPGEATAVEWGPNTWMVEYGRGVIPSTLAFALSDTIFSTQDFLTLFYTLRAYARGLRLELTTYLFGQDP
# T1 sequence (P18901 whole entry): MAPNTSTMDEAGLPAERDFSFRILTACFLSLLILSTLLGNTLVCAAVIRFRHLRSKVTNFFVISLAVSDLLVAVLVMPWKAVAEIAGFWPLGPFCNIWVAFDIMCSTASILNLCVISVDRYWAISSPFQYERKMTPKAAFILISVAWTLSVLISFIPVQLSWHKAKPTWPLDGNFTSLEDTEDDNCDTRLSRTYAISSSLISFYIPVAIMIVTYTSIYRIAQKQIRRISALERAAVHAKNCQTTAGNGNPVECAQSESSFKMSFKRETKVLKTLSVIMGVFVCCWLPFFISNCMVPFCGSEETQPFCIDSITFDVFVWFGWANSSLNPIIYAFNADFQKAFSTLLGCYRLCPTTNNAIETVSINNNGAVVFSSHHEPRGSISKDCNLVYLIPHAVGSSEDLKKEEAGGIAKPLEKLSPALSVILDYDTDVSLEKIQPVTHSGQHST
# T2 sequence (P61169 whole entry): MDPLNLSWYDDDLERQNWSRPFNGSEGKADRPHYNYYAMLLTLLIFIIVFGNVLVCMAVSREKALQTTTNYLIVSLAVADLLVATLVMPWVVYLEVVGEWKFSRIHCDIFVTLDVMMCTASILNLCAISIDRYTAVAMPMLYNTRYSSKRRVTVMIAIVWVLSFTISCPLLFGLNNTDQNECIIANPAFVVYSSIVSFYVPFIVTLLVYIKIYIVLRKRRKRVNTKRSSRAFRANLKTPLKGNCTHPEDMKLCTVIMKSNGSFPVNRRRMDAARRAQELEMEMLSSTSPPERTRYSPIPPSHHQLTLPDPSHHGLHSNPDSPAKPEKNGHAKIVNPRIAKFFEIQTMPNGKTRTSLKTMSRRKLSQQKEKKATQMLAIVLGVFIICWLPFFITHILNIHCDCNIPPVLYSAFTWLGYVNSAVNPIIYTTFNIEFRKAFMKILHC
# T5 sequence (P14842 whole entry): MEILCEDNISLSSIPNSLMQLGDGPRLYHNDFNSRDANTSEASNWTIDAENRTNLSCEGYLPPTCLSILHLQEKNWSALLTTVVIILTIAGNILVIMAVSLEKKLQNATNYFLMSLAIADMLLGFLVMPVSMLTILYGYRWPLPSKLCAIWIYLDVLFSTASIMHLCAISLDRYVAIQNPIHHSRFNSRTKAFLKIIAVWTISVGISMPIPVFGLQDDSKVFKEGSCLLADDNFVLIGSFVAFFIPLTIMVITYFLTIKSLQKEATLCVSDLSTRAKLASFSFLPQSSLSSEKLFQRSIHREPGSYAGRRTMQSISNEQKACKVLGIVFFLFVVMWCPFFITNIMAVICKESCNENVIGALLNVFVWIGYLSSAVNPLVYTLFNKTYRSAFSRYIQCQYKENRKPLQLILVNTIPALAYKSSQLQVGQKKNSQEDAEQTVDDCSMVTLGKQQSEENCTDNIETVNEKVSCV
SMILES,ED50 [1],"potentiation of hexobarbital induced narcosis (in words) ([1]; mouse, in vivo)",minimal effective dose [2],effect in the elevated plus maze test (in words) [2],pKi [3],pKi [4],minimal effective dose [5],effect on mCPP induced anxiety (in words) [5],pKi [6],selectivity of binding among 5-HT receptors (in words) [7],pKi [8],ED50 [9],"inhibition of spontaneous motor activity (in words) ([9]; sedato-hypnotic side effect, compared to Compound B)",pKi [10],binding at sigma receptors (in words) [11],pKi [11]
"CNCCO[C@]1(c2ccccc2)C[C@H]2CC[C@]1(C)C2(C)C [Compound A, (1R,2S,4R)-(-)-2-phenyl-2-methylaminoethoxy-1,7,7-trimethyl-bicyclo[2.2.1]heptane-fumarate]",4 mg/kg,potentiated the hexobarbital induced narcosis to a lesser extent,1 mg/kg,effective in the elevated plus maze test,5.00,< 7.00,> 3 mg/kg,completely ineffective up to 3.0 mg/kg i.p.,7.70,binds only to 2C,< 5.00,57 mg/kg,inhibited the spontaneous motor activity in higher doses only,< 7.00,does not,< 7.00
"CN(C)CCO[C@]1(c2ccccc2)C[C@H]2CC[C@]1(C)C2(C)C [Compound B, (1R,2S,4R)-(-)-2-phenyl-2-dimethylaminoethoxy-1,7,7-trimethyl-bicyclo[2.2.1]heptane-fumarate, reference compound]",0.5 mg/kg,–,> 10 mg/kg,did not show any effect,< 6.00,< 7.00,0.5 mg/kg,significantly antagonized the mCPP induced anxiety,8.05,not selective at 2C,< 5.00,31.5 mg/kg,–,7.46,shows significant binding at sigma receptors,7.28
